Reference: patent US20070270591A1, “Iron (II) amino acid chelates with reducing agents attached thereto” (priority 2006, published 2007)

Conditions: no method given; for absorption compared with ferrous sulfate: comparison with ferrous sulfate

## NCC(=O)O.NCC(=O)O.NCC(=O)O.[Fe] [ferric trisglycinate]
  absorption compared with ferrous sulfate: better than ferrous sulfate

## NCC(=O)[O-].NCC(=O)[O-].[Fe+2] [Ferrous bisglycinate]
Comparison with ferric trisglycinate
  absorption relative to ferric trisglycinate (absorbed x times better): 2.3 times
  absorption compared with ferrous sulfate: better than ferrous sulfate
